# Experimental data taken from publication PMC11850616, “Nanomolar inhibitor of the galectin-8 N-terminal domain binds via a non-canonical cation-π interaction” (Communications Chemistry, 2025).
# Several values for one entry are separate records, joined by “and”; a condition that tells them apart may be missing. Equal values may be shown once. Read-outs that look alike come from different tables or passages of the source.
# Assays:
# [1] = biological target: T1, Gal-8N (Homo sapiens, UniProt O00214); experiment: isothermal titration calorimetry (ITC), binding to Gal-8N
# T1 construct: consisting of residues 4-158 was produced by Lund Protein Production Platform; made in house; host or cells: E. coli TUNER(DE3)
# T1 sequence (O00214 4-158): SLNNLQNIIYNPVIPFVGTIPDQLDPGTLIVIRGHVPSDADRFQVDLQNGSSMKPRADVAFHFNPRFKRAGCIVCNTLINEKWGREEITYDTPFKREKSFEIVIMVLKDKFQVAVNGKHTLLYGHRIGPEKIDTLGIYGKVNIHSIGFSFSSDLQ
# Protocol: Isothermal titration calorimetry (ITC) experiments were conducted using a Microcal PEAQ-ITC isothermal titration calorimeter (Malvern Instruments, Malvern Panalytical Ltd) at 25 °C. Lyophilized Gal-8N was first dissolved in PBS buffer (with a 4.3 mM β-mercaptoethanol) with a pH = 7.4 and Gal-8N was dialyzed with a 0.5–3 mL Slide-A-Lyzer™ 7k MWCO Dialysis Cassette in the same buffer. To remove residual lactose, Gal-8N was additionally purified using Superdex 75 Increase column equilibrated in PBS with 5% DMSO. Fractions containing Gal-8N were collected and concentrated with Amicon® Ultra-0.5 Centrifugal Filter Device with a 10k MWCO to a final concentration of about 40 µM. A280 was measured using the NanoDrop^TM One Microvolume UV-VIS spectrophotometer and the concentration of Gal-8N was calculated (ε = 11460 L mol^−1 cm^−1 was used). 16 mM stock solutions of 1, 11, and 29 were prepared in pure DMSO. The 16 mM stock solutions were diluted to 800 μM with pure PBS and then to the final concentration of 560 μM (the final content of DMSO was 5%). Titrations were performed with 19 injections of Gal-8N inhibitors 1, 11 (560 μM) and 29 (800 μM) with a following settings: reference power = 10.0 µcal s^−1, feedback = high, stir speed = 750, Initial delay = 100 s, first spacing = 200 s, the other spacings = 150 s.
# Raw thermograms were exported and integrated with the NITPIC (version 2.0.7)[43] and then analyzed with SEDPHAT (version 15.2)[44],[45]. Parameter and error analysis were performed using the Monte-Carlo approach for nonlinear regression with 1000 iterations as implemented in SEDPHAT.
# [2] = biological target: T2, Gal-8N (galectin-8 N-terminal domain) (Homo sapiens, UniProt O00214); settings: cited from earlier work
# T2 construct: made in house
# T2 sequence (O00214 19-152 limits assumed): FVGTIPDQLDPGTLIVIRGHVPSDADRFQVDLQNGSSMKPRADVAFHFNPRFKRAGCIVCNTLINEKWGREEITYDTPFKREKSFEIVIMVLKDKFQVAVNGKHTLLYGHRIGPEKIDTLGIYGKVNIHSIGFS
# [3] = biological target: T3, Gal-3 (Homo sapiens, UniProt P17931); settings: cited from earlier work; for Gal-3 selectivity ratio Kd (Gal-3)/Kd (Gal-8N): selectivity for Gal-8N over Gal-3 (fold)
# T3 construct: made in house
# T3 sequence (P17931 whole entry): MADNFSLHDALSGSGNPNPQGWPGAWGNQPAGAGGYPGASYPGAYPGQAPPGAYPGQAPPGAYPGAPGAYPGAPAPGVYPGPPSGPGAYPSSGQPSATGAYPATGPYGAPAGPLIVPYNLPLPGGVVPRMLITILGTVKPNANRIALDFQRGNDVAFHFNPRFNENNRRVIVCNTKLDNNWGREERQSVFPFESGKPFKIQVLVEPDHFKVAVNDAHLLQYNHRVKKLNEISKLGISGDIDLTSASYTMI
# [4] = biological target: T4, Gal-1 (Homo sapiens, UniProt P09382); set-up: method as in PMID 34225180; settings: cited from earlier work
# T4 construct: made in house
# T4 sequence (P09382 whole entry): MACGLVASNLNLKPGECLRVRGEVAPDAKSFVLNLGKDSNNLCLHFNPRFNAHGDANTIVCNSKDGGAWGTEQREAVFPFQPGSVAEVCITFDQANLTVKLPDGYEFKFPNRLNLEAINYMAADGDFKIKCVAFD
# [5] = biological target: T5, Gal-8C (Homo sapiens, UniProt O00214); set-up: method as in PMID 34225180; settings: cited from earlier work
# T5 construct: than to the C-terminal domain (Gal-8C)
# T5 sequence (O00214 187-317 limits assumed): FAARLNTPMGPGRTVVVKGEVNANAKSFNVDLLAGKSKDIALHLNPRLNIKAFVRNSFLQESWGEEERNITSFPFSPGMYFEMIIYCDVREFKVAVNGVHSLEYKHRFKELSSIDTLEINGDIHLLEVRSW
# [6] = biological target: T2, Gal-8N (galectin-8 N-terminal domain); experiment: competitive fluorescence polarisation assay, Gal-8N; assay type: binding; settings: competitive FP, mean ± SEM of n = 4 to 8, 20 °C; read-out: Kd Gal-8N
# Protocol: (§1) Human galectins-1, -3, and -8N were expressed and purified as described previously[8],[23],[24]. Competitive fluorescence polarization assays were performed with a PHERAstar FS plate reader with software PHERAstar Mars version 2.10 R3 (BMG, Offenburg, Germany) and Tecan Spark multimode microplate reader (Tecan Trading AG, Switzerland), where a fluorescence anisotropy of fluorescent-tagged probes was measured by excitation at 485 nm and emission at 520 nm. Experiments were performed at 20 °C with Gal-1 at 0.5 µM, Gal-3 at 0.2 µM, and Gal-8N at 0.4 µM. Fluorescent probes used for experiments were 3,3′-dideoxy-3-[4-(fluorescein-5-yl-carbonylaminomethyl)-1H-1,2,3-triazol-1-yl]-3′-(3,5-di-methoxybenzamido)-1,1′-sulfanediyl-di-β-D-galactopyranoside at 0.02 µM for Gal-1 and -3 and 2-(fluorescein-5-yl-carbonylamino)ethyl β-D-galactopyranosyl(1-4)-2-acetamido-2-deoxy-β-D-glucopyranosyl(1–3)-β-D-galactopyranosyl(1–4)-β-D-glucopyranoside at 0.1 µM for Gal-8N in each well. Compounds were first dissolved in pure DMSO at 20 mM concentration and later diluted in 5% DMSO in PBS solution to 5-7 different concentrations. Each concentration was tested in duplicate. The highest inhibitor concentrations tested were 1.5 mM. The average values of Kd and SEM (standard error mean) were calculated from 4 to 8 duplicate measurements, showing 10–90% inhibition.
# [7] = biological target: T3, Gal-3; experiment: competitive fluorescence polarisation assay, Gal-3; assay type: binding; settings: for Kd: competitive FP, mean ± SEM of n = 4 to 8, 20 °C, read-out: Kd Gal-3; for Gal-3 selectivity ratio Kd (Gal-3)/Kd (Gal-8N): ratio of FP Kd values
# Protocol: as §1
# [8] = biological target: T4, Gal-1; experiment: competitive fluorescence polarisation assay, Gal-1; assay type: binding; settings: for Kd: competitive FP, mean ± SEM of n = 4 to 8, 20 °C; for Gal-1 selectivity ratio Kd (Gal-1)/Kd (Gal-8N): ratio of FP Kd values
# Protocol: as §1
# [9] = biological target: T5, Gal-8C; experiment: competitive fluorescence polarisation assay, Gal-8C; assay type: binding; settings: for Kd: competitive FP, mean ± SEM of n = 4 to 8; for Gal-8C selectivity ratio Kd (Gal-8C)/Kd (Gal-8N): ratio of FP Kd values
# [10] = biological target: T1, Gal-8N; experiment: ligand efficiency (LE) and ligand-lipophilicity efficiency (LLE) calculations; settings: for LLE: from Gal-8N Kd and clogP; for LE: from Gal-8N Kd and number of non-hydrogen atoms
# [11] = 25 °C, PBS buffer, 1:1 binding model, n = 2
SMILES,"-TΔS [1, 11]","Kd [1, 11]","ΔG [1, 11]","ΔH [1, 11]",Gal-3 selectivity ratio Kd (Gal-3)/Kd (Gal-8N) [3],Kd [6],Kd [7],Gal-3 selectivity ratio Kd (Gal-3)/Kd (Gal-8N) [7],Kd [8],Kd [9],Gal-8C selectivity ratio Kd (Gal-8C)/Kd (Gal-8N) [9],LLE [10],LE [10],Gal-1 selectivity ratio Kd (Gal-1)/Kd (Gal-8N) [8],further results
"Cn1c(CO[C@@H]2[C@@H](O)[C@@H](Sc3ccc(Cl)c(Cl)c3)O[C@H](CO)[C@@H]2O)nc2ccc(C(=O)O)cc21 [Compound 1, reference compound]",3.35 kcal/mol and 3.35 ± 3.11 kcal/mol,5 µM,-7.22 kcal/mol and -7.22 ± 0.14 kcal/mol,-10.5 kcal/mol and -10.5 ± 2.87 kcal/mol,2.8,,,,,,,,,,-TΔS ([1]; TRIS buffer): 4.54 kcal/mol; Kd ([1]; TRIS buffer): 4.5 µM; ΔG ([1]; TRIS buffer): -7.34 kcal/mol; ΔH ([1]; TRIS buffer): -12 kcal/mol; fold more potent than D-galactose (Gal-8N) [2]: ~ 5000 fold; Gal-1 selectivity ratio Kd (Gal-1)/Kd (Gal-8N) [4]: 72; Gal-8C selectivity ratio Kd (Gal-8C)/Kd (Gal-8N) [5]: 422
O=C(O)[C@H](CC1CCCCC1)O[C@@H]1[C@@H](O)[C@@H](Sc2ccc(Cl)c(Cl)c2)O[C@H](CO)[C@@H]1O [Compound 2],,,,,,,,,,,,,,,"Kd [2]: 12 µM; Kd ([3]; Fig. 1, earlier inhibitors, read-out: Kd: galectin-3): 82 µM; selectivity over Gal-3 ([3]; Gal-8N over Gal-3): 6.8 fold"
Cn1c(CO[C@@H]2C=CO[C@H](CO)[C@@H]2O)nc2ccc(C(=O)O)cc21 [Compound 3],,,,,14,,,,,,,,,,
C#CCO[C@@H]1[C@@H](OCc2nc3ccc(C(=O)O)cc3n2C)[C@@H](O)[C@@H](CO)O[C@@H]1Sc1ccc(Cl)c(Cl)c1 [Compound 11],6.69 ± 2.2 kcal/mol and 6.69 kcal/mol,1.3 µM,-8.01 ± 0.12 kcal/mol and -8.01 kcal/mol,-14.6 ± 1.9 kcal/mol and -14.6 kcal/mol,,0.8 ± 0.09 µM,1.4 ± 0.2 µM,1.75,10 ± 0.71 µM,390 ± 14 µM,488,2.01,0.226 (kcal/mol)/heavy atom,,ΔΔH compared to 1 ([1]; difference vs compound 1): –17 kJ mol^−1; ΔΔH compared to 29 ([1]; difference vs compound 29): –4 kJ mol^−1
Cn1c(CO[C@H]2[C@@H](O)[C@@H](CO)O[C@H](Sc3ccc(Cl)c(Cl)c3)[C@@H]2OCc2cn(-c3ccccc3C(=O)O)nn2)nc2ccc(C(=O)O)cc21 [Compound 16a],,,,,,0.46 ± 0.03 µM,1.2 ± 0.2 µM,2.6,26 ± 1.1 µM,159 ± 4 µM,346,1.26,0.177 (kcal/mol)/heavy atom,57,
Cn1c(CO[C@H]2[C@@H](O)[C@@H](CO)O[C@H](Sc3ccc(Cl)c(Cl)c3)[C@@H]2OCc2cn(-c3cccc(C(=O)O)c3)nn2)nc2ccc(C(=O)O)cc21 [Compound 16b],,,,,,0.65 ± 0.05 µM,2.9 ± 0.4 µM,4.5,37 ± 1.1 µM,100 ± 2 µM,154,1.11,0.173 (kcal/mol)/heavy atom,57,
